# Source: patent US20020032193A1, “Use of potassium channel openers for the treatment of insulitis” (priority 2000, published 2002)
# Experiments:
# ischemic heart = details: Garlid KD et al., Circulation Res 1997; cited from earlier work
# Rat islets [1] = assay: Insulin secretion and islet insulin content after streptozotocin exposure; type: cell-based, Sprague-Dawley rats; details: 24 hours; for insulin content compared to islets incubated with STZ alone / insulin secretion compared to islets incubated with STZ alone: pre-incubated with KATP channel opener, then 0.5 mM STZ
# Method: (§1) Pancreata from Sprague-Dawley rats were collagenase digested and islets collected with a braking pipette as previously described (Sandler S et al., Endocrinology, 1987;121:1424-31). Islets were precultured free floating in RPMI 1640 medium with 10% (v/v) fetal calf serum (FCS) and 11 mM glucose for 3 days in 5% CO2 at 37° C. before experiments. Medium was changed two times during preculture. Islets were then transferred to sterile Petri dishes in KRBH (Krebs-Ringer bicarbonate with HEPES) medium with 2 mg/mL bovine serum albumin (BSA) and 5.6 mM glucose.
# (§2) Stock solutions of test compounds dissolved in dimethyl sulphoxide were prepared and added to the Petri dishes. Islets were incubated in 5% CO2 at 37° C. for 30 minutes with or without test compounds and STZ in 0.9% NaCl was then added to a final concentration of 0.5 mM. Dry powder of alloxan was diluted to a stock of 50 mM just before the addition to the Petri dishes to a final concentration of 0.5 mM. The incubation continued for another 30 minutes and was terminated by the addition of 1 mL of cold KRBH. The islets were then washed twice in KRBH and studied for morphology and insulin secretion, or cultured for 2 or 24 hours in RPMI with 10% FCS and 11 mM glucose prior to morphological and biochemical examinations.
# (§3) Triplicates of five islets were transferred to 200 μl of KRBH with 2 mg/mL BSA and 16.7 mM glucose and incubated for 60 minutes in 5% CO2 at 37° C. Islets from each condition were then pooled and sonicated in 200 μl of redestilled water. A 50 μl aliquot of the homogenate was mixed with 125 μl acid ethanol (0.18 M HCl in 95% ethanol) and insulin extracted overnight. Insulin concentration in the sonicate and the culture medium was determined with radioimmunoassay.
# Rat islets [2] = assay: Glucose oxidation after alloxan exposure; type: cell-based, Sprague-Dawley rats; details: for glucose oxidation rate, of control: islets treated with 0.5 mM alloxan in the presence of opener, 24 hours
# Method: as §1, §2
# Groups of 10 islets were transferred to glass vials with 100 μl KRBH supplemented with D-[U^14C]glucose and nonradioactive glucose to a final concentration of 16.7 mM glucose. Triplicate samples were used. The vials were suspended in scintillation flasks, gassed with 5% CO2 and sealed airtight. The flasks were then shaken for 90 minutes at 37° C. Metabolism was stopped by injection of 100 μl of 0.05 mM antimycin A into the center vial. Immediately thereafter 250 μl hyamine hydroxide was injected into the outer flask. CO2 was released from the incubation medium by injecting 100 μl of 0.4 M Na2HPO4 solution (pH 6.0) into the center vial. […] Scintillation fluid was then added to each flask and the radioactivity counted in a liquid scintillation counter.
# Rat islets [3] = assay: Insulin release after alloxan exposure; type: cell-based, Sprague-Dawley rats; details: for counteraction of alloxan-induced reduction of insulin release: 0.3 mM opener, simultaneous incubation with 0.5 mM alloxan
# Method: as §1, §2, §3
# Rat islets [4] = assay: Islet recovery after streptozotocin exposure; type: cell-based, Sprague-Dawley rats
# Method: as §1
# as §2, with “The islets were then washed twice in KRBH and studied for morphology and insulin secretion, or cultured for 2 or 24 hours in RPMI with 10% FCS and 11 mM glucose prior to morphological and biochemical examinations.” left out
# About 100 islets per condition were carefully transferred to a glass tube and spun down at 800 rpm for 1 minute. […] For estimation of islet recovery, 30 islets from each condition were transferred to Petri dishes as described above and the remaining islets counted after 24 hours.
# Rat islets [5] = assay: Glucose oxidation after streptozotocin exposure; type: cell-based, Sprague-Dawley rats
# Method: as §1
# as §2, with “The islets were then washed twice in KRBH and studied for morphology and insulin secretion, or cultured for 2 or 24 hours in RPMI with 10% FCS and 11 mM glucose prior to morphological and biochemical examinations.” left out
# Groups of 10 islets were transferred to glass vials with 100 μl KRBH supplemented with D-[U^14C]glucose and nonradioactive glucose to a final concentration of 16.7 mM glucose. […] Scintillation fluid was then added to each flask and the radioactivity counted in a liquid scintillation counter.
# Rat islets [6] = assay: Proinsulin and total protein biosynthesis after streptozotocin exposure; type: cell-based, Sprague-Dawley rats
# Method: as §1, §2
# For each condition duplicate samples of 20 islets were transferred to multiwell plates containing 100 μl KRBH with L-[4.5-^3H]leucine (50 μCi/ml), 2 mg/mL BSA and 16.7 mM glucose and incubated for 120 minutes in 5% C02 at 37° C. Islets were then washed in Hanks' solution supplemented with 10 mM nonradioactive leucine and subsequently sonicated in 200 μl of redestilled water. A 50 μl fraction of the aqueous homogenate was incubated for 90 minutes with insulin antibodies coupled to Sepharose beads to separate proinsulin from other labelled proteins (15). Total protein biosynthesis was obtained by precipitating the labelled proteins with trichloroacetic acid (TCA). The antibody bound and TCA precipitable radioactivity were determined in a liquid scintillation counter.
# [7] = 0.3 mM test compound + 0.5 mM STZ
# [8] = remaining islets after STZ 0.5 mM
# [9] = recovered STZ islets at 24 hours
smiles,measurement,setting,value
CC1=NS(=O)(=O)c2cc(Cl)ccc2N1 [diazoxide],effect in ischemic heart,ischemic heart,"beneficial, cardioprotective effect"
same,insulin content compared to islets incubated with STZ alone,Rat islets [1],higher
same,insulin secretion compared to islets incubated with STZ alone,Rat islets [1],higher
same,"glucose oxidation rate, of control",Rat islets [2],73%
same,counteraction of alloxan-induced reduction of insulin release,Rat islets [3],fully counteracted
"CC(C)NC1=NS(=O)(=O)c2sc(Cl)cc2N1 [6-Chloro-3-isopropylamino-4H-thieno[3,2-e]-1,2,4-thiadiazine 1,1-dioxide]",insulin content compared to islets incubated with STZ alone,Rat islets [1],higher
same,insulin secretion compared to islets incubated with STZ alone,Rat islets [1],higher
same,"glucose oxidation rate, of control",Rat islets [2],did not differ from control
same,counteraction of alloxan-induced reduction of insulin release,Rat islets [3],fully counteracted
same,islet loss,"Rat islets [4]; 0.3 mM test compound preincubated 30 minutes + 0.5 mM STZ, 24 hours culture",no islet loss
same,glucose oxidation rate compared to islets incubated with STZ alone,Rat islets [5]; [7],higher
same,insulin biosynthesis compared to islets incubated with STZ alone,Rat islets [6]; [7],higher
CC1(C)Oc2ccc(C#N)cc2C(N2CCCC2=O)C1O (stereo not drawn) [cromakalim],effect in ischemic heart,ischemic heart,"beneficial, cardioprotective effect"
"CN(N=O)C(=O)N[C@H]1C(O)O[C@H](CO)[C@@H](O)[C@@H]1O (mixture of isomers) [STZ, streptozotocin]","insulin content, of control",Rat islets [1]; [8],50%
same,"insulin secretion, of control",Rat islets [1]; [8],60%
same,islet loss,"Rat islets [4]; STZ 0.5 mM for 30 minutes, then 24 hours culture",40%
same,"rate of glucose oxidation, of control","Rat islets [5]; islets after STZ 0.5 mM, 24 hours",16%
same,"proinsulin biosynthesis, of control",Rat islets [6]; [9],35%
same,"total protein biosynthesis, of control",Rat islets [6]; [9],51%
same,proinsulin/total protein biosynthesis ratio,"Rat islets [6]; recovered STZ islets at 24 hours, 23% in control islets",15%
same,"insulin biosynthesis, of control","Rat islets [6]; remaining islets after STZ 0.5 mM, 24 hours",35%
CC(N/C(=N\C#N)Nc1ccncc1)C(C)(C)C (stereo not drawn) [pinacidil],effect in ischemic heart,ischemic heart,"beneficial, cardioprotective effect"
O=C1NC(=O)C(=O)C(=O)N1 [alloxan],decrease of glucose oxidation rate,"Rat islets [2]; 0.5 mM alloxan, after 24 hours",51%
same,reduction of insulin release,Rat islets [3]; 0.5 mM alloxan,31%
